Measured values reported in patent publication US8921364B2, “Modulators of calcium release-activated calcium channel” (Rhizen Pharmaceuticals SA, priority 2009, dated 2014).
Where a name gives a salt, the structure may show the parent alone. One block for each molecule: values may come before it.

Columns and labels:
[1] = test system: male Balb/c mice; assay: Foot paw delayed type hypersensitivity in male Balb/c mice; type: in vivo; conditions: 10 mg/kg, daily treatment day 0 to day 10
Procedure: DTH swelling responses can be used to follow the activity of immunosuppressive molecules and/or suppressor T cells in vivo. Intradermal antigen (methylated BSA) injections were given to mice (at base of tail) on day 0 and day 7. Compounds were administered once daily from day 0 to day 10 Methylated BSA was injected into the right hind footpad of animals on day 10. Weight difference induced by antigen was determined by weighing the right and left hind paws 24 h after injection of methylated BSA (day 11).

[2] = test system: guinea pigs; assay: OVA-induced asthma in guinea pigs; type: in vivo; conditions: 10 mg/kg b. wt, oral, 1 h before OVA challenge
Procedure: Pulmonary eosinophilia and airway remodelling in conjunction with altered neural control of airway tone and airway epithelial desquamation contributes to Airway Hyper-responsiveness (AHR) in asthma. For determination of eosinophil reduction, animals were sensitized with OVA on d0, d7, and d14 followed by another round (0.1% w/v) through inhalation on d19 & d20. Compounds were administered orally 1 h before OVA challenge (0.3%). BAL fluid was collected on d22 for differential count and cytokine estimation. For determination of change in respiratory parameters, animals were subjected to whole body plethysmography immediately after ova challenge.

[3] = test system: female Balb/C mice; assay: Concanavalin (Con) A induced hepatitis in female Balb/C mice; type: in vivo; conditions: 10 mg/kg b. wt, oral, 1 hour prior to Con A, blood after 24 hours
Procedure: Con A is often used to prepare experimental animals with high levels of cytotoxic T-lymphocytes, because these cells are involved in the development of viral infections in humans. In this model, animals were administered test compounds orally 1 hour prior to intravenous administration of Con A. Blood samples were collected after 24 hours for determination of Serum glutamic oxaloacetic transaminase (SGOT) and Serum glutamic pyruvic transaminase (SGPT) in Serum.

[4] = test system: male DBA/1 Ola HSD mice; assay: Collagen-induced arthritis in male DBA/1 Ola HSD mice; type: in vivo; conditions: 10 mg/kg b. wt, daily, po, qd
Procedure: Collagen induced arthritis in rodent models have been widely used to illustrate and understand the development of the disease besides serving as a surrogate for validation of therapeutic targets for human rheumatoid arthritis. Mice were anesthetized with Isoflurane and given 150 μl of Bovine Type II collagen in Freund's complete adjuvant injections (day 0 and day 21). Treatment was initiated on study day 0 and continued once daily, every day (po, qd). Starting on day 18, clinical scores were given daily for each of the paws (right front, left front, right rear, left rear) and continued till the day of sacrifice (day 34). Daily administration of the test compound (Example 69) at 10 mg/kg b. wt alleviated arthritic symptoms, disease progression, and incidence by 30% compared to the control animals.

[5] = test system: female Balb/C mice; assay: TNCB induced contact hypersensitivity in female Balb/c mice; type: in vivo; conditions: 10 mg/kg b. wt, oral, 24 h after TNCB challenge
Procedure: Contact hypersensitivity is a simple in vivo assay of cell-mediated immune function. In this procedure, exposure of epidermal cells to exogenous haptens results in a delayed type hypersensitive reaction that can be measured and quantified. Briefly, 7% TNCB solution was applied to the abdominal region of 8 week old Balb/c mice. Ear thickness was measured 7 days after TNCB sensitization. Compounds were administered orally followed by an application of 1% TNCB to inside and outside of ear pinnae. Ear thickness was measured 24 h after TNCB challenge

[6] = target: CRAC channels (Homo sapiens (Human), UniProt Q96D31); assay: In-vitro CRAC channel inhibition assay in Jurkat cells (thapsigargin-induced calcium influx); type: cell-based; conditions: Jurkat cells, thapsigargin-induced calcium influx
Sequence of CRAC channels (Q96D31 whole entry): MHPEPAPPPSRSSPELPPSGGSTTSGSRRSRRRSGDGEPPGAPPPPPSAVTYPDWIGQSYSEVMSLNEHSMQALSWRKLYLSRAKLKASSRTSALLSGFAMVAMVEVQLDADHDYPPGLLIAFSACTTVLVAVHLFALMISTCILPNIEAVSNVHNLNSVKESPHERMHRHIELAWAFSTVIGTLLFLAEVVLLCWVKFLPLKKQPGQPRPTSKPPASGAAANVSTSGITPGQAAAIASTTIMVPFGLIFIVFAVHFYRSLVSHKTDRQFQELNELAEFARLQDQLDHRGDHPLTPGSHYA
Procedure: Inhibition of CRAC channels was determined following thapsigargin (Sigma, Cat # T9033) induced endoplasmic calcium release in Jurkat cells. […] Cells were centrifuged and re-suspended in equal volumes ° f Ca^2+ and Mg^2+ free Hanks buffer and Fluo-8 NW dye (ABD Bioquest, Inc., Sunnyvale, Calif.) loading solution at 2×10^5 cells/100 μl/well in 96-well black plate. Plate is incubated at 37° C., 5% CO2 for 30 min followed by further 15 min incubation at room temperature. Test compounds (DMSO stocks diluted in Ca^2+ and Mg^2+ free Hanks buffer) at desired concentrations were added to the wells and incubated for […] Thapsigargin (1 μM final concentration) was added to the wells and incubated for 15 min to inhibit the Sarco-endoplasmic reticulum Ca^2+ ATPase pump thereby depleting endoplasmic calcium and raising cytosolic calcium concentrations. Store-operated calcium entry was initiated by adding extracellular Ca^2+ to a final concentration of 1.8 mM. Fluorescence was monitored over […] on a plate reader (BMG Labtech., Germany) with excitation at 485 nm and an emission wavelength at 520 nm. Data were analyzed using GraphPad Prism. IC50 for each compound was determined based on the percent inhibition of thapsigargin-induced calcium influx into cells.

[7] = target: CRAC channels over the voltage operated channels (VOC) (Homo sapiens (Human), UniProt Q96D31); conditions: Yonetoky et al.; cited from earlier work
Sequence of CRAC channels over the voltage operated channels (VOC) (Q96D31 whole entry): as above

Molecule: Cc1ncc(C(=O)Nc2ccc(-n3nc(C(F)(F)F)cc3C3CC3)cc2)c(C)n1 [Example 69, N-{4-[5-cyclopropyl-3-(trifluoromethyl)-1H-pyrazol-1-yl]phenyl}-2,4-dimethylpyrimidine-5-carboxamide]
- reduction in antigen-induced paw inflammation [1]: > 40%
- reduction in blood eosinophils [2]: > 70%
- respiration (whole body plethysmography) ([2]; plethysmography immediately after ova challenge): improvement in respiration
- reduction in serum SGOT & SGPT [3]: > 85%
- alleviation of arthritic symptoms, disease progression, and incidence compared to control animals [4]: 30%
- reduction in ear inflammation [5]: > 70%

- IC50 [6]: 50.6 nM
Molecule: O=C(Nc1ccc(-n2nc(C(F)(F)F)cc2C2CC2)nc1)c1c(F)cccc1F [Example 108, N-{6-[5-cyclopropyl-3-(trifluoromethyl)-1H-pyrazol-1-yl]pyridin-3-yl}-2,6-difluorobenzamide]

- IC50 [6]: 47.2 nM
Molecule: O=C(Nc1ccc(-n2nc(C(F)(F)F)cc2C2CC2)nc1)c1cccnc1 [Example 111, N-{6-[5-cyclopropyl-3-(trifluoromethyl)-1H-pyrazol-1-yl]pyridin-3-yl}nicotinamide hydrochloride]

- % inhibition (1 uM) [6]: 36.44%
Molecule: Cc1ncccc1C(=O)Nc1ccc(-n2nc(C(F)(F)F)cc2C2CC2)nc1.Cl [Example 112, N-{6-[5-cyclopropyl-3-(trifluoromethyl)-1H-pyrazol-1-yl]pyridin-3-yl}-2-methyl nicotinamide hydrochloride]

- IC50 [6]: 62.6 nM
Molecule: O=C(Nc1ccc(-n2nc(C(F)(F)F)cc2C2CC2)nc1)c1ccncc1 [Example 113, N-{6-[5-cyclopropyl-3-(trifluoromethyl)-1H-pyrazol-1-yl]pyridin-3-yl}isonicotinamide hydrochloride]

- IC50 [6]: 37.6 nM
Molecule: O=C(Nc1ccc(-n2nc(C(F)(F)F)cc2C2CC2)nc1)c1ccncc1F [Example 114, N-{6-[5-cyclopropyl-3-(trifluoromethyl)-1H-pyrazol-1-yl]pyridin-3-yl}-3-fluoroisonicotinamide]

- IC50 [6]: 72.1 nM
Molecule: O=C(Nc1c(F)cccc1F)c1ccc(-n2nc(C(F)(F)F)cc2C2CC2)nc1 [Example 122, 6-[5-cyclopropyl-3-(trifluoromethyl)-1H-pyrazol-1-yl]-N-(2,6-difluorophenyl) nicotinamide]

- IC50 [6]: 295 nM
Molecule: O=C(Nc1cnc(-n2nc(C(F)(F)F)cc2C2CC2)nc1)c1c(F)cccc1F [Example 124, N-{2-[5-cyclopropyl-3-(trifluoromethyl)-1H-pyrazol-1-yl]pyrimidin-5-yl}-2,6-difluorobenzamide]

- IC50 [6]: 373 nM
Molecule: Cc1ncsc1C(=O)Nc1ccc(-n2nc(C(F)(F)F)cc2CF)cc1 [Example 125, N-{4-[5-(fluoromethyl)-3-(trifluoromethyl)-1H-pyrazol-1-yl]phenyl}-4-methylthiazole-5-carboxamide]

- IC50 [6]: 52.6 nM
Molecule: Cc1ncsc1C(=O)Nc1ccc(-n2nc(C(F)(F)F)cc2C(F)F)cc1 [Example 126, N-{4-[5-(difluoromethyl)-3-(trifluoromethyl)-1H-pyrazol-1-yl]phenyl}-4-methyl thiazole-5-carboxamide]

Molecule: Cc1nnsc1C(=O)Nc1ccc(-n2nc(C(F)(F)F)cc2C(F)(F)F)cc1 [YM-58483]
- selective index (CRAC channels over VOC) [7]: 31

Molecule: N-{4-[3-cyclopropyl-5-(difluoromethyl)-1H-pyrazol-1-yl]-3-fluorophenyl}-2,6-difluorobenzamide and N-{4-[5-cyclopropyl-3-(difluoromethyl)-1H-pyrazol-1-yl]-3-fluorophenyl}-2,6-difluorobenzamide [Example 135]
- % inhibition (1 uM) [6]: 100%
